Data from patent US20220118117A1, “MODULATORS OF METABOTROPIC GLUTAMATE RECEPTOR 4” (The General Hospital Corporation, priority 2019, published 2022).

Key:
[1] = ex vivo biodistribution of [18F]15; format: in vivo, Sprague Dawley rats; settings: rat, iv
Experimental: Ex vivo Studies of Biodistribution. For biodistribution studies the normal male Sprague Dawley rats were anesthetized with isoflurane/nitrous oxide (1-1.5% isoflurane) to install catheter into the tail vain for administration of radioactivity ([^18F]15, 22±3 MBq, iv). Total of 15 rats in deep anesthesia (isoflurane 4% and cervical dislocation) were sacrificed in a group of three at five different time points (5, 10, 20, 30, and 60 min) after injection of [^18F]15. Major organs including lung, heart, liver, spleen, kidney, muscle, midbrain, cortex, cerebellum and blood were harvested to determine radioactivity. The tissue samples were weighted, and the radioactivity was measured with the standard samples of [^18F]15 using Wizard2 2480, Perkin Elmer, Calif. Radioactivity of the tissue samples was determined as percent of the injected activity per gram of the tissue.

[2] = PET imaging of [18F]15, baseline; format: in vivo, Sprague Dawley rats
Experimental: PET Imaging of [^18F]15 in Rats. Altogether 24 normal male Sprague Dawley rats were used for the imaging studies comprising 15 baseline studies and 15 blocking studies. Rats were anaesthetized with isoflurane/nitrous oxide (1.0-1.5% isoflurane, with oxygen flow of 1-1.5 L/min), and catheter was installed into tail vein for the administration of [^18F]15. Dynamic volumetric PET data was acquired with a PET-CT scanner for 60 min (Triumph-II, Tri-Foil Imaging, Northridge, Calif.). The vital signals such as heart rate and respiration rate were monitored during scanning period. PET data acquisition was started immediately after administration of radioactivity with the dose range of 18-34 MBq depending on the size of the rat followed by CT imaging to obtain anatomical information and data for attenuation correction of PET data. PET data was processed by using maximum-likelihood expectation-maximization (MLEM) algorithm with 30 iterations to dynamic volumetric images, and corrected for uniformity, scatter, and attenuation. The CT data was processed by the modified Feldkamp algorithm using matrix volumes of 512×512×512 and pixel size of […]. Co-registration of CT and PET images and analysis of PET images were carried out using PMOD3.2 software (PMOD Technology, Zurich, Switzerland).

mGluR4 = mGluR4 (Homo sapiens, UniProt Q14833); test: GloSensor cAMP biosensor assay, mGluR4 PAM and agonist activity; format: cell-based; set-up: expressed in transfected cells; settings: in presence of EC20 concentration of agonist (1 μM L-SOP); read-out: EC50, mGluR4 PAM activity
Chain of mGluR4 (Q14833 33-912): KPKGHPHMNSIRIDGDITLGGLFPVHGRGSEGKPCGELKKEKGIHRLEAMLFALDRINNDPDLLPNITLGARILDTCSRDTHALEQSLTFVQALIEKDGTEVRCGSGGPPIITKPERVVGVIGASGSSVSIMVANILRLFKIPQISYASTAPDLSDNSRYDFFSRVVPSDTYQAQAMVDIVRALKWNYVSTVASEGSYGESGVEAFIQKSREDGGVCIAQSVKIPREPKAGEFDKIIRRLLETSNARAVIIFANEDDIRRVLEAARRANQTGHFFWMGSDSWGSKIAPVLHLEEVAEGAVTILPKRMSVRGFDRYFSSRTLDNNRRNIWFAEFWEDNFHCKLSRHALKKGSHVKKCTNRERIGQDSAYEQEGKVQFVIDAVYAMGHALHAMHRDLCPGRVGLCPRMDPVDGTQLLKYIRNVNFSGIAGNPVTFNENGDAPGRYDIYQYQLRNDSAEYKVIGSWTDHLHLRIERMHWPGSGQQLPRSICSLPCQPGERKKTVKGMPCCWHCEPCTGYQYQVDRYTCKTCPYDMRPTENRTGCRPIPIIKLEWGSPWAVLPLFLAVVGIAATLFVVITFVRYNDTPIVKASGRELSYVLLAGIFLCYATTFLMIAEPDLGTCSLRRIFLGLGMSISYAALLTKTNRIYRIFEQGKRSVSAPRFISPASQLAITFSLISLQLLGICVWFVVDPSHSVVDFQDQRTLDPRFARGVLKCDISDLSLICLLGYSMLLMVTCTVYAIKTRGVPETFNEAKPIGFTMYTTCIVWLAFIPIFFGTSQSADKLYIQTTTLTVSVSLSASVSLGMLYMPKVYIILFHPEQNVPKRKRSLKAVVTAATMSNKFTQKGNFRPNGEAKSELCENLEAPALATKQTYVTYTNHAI
Experimental: Cell Culture. HEK-293 cells were maintained with complete Dulbecco's modified Eagle's medium (DMEM), which was composed of 10% fetal bovine serum (FBS), 2 mM L-glutamine, 100 units/mL penicillin G, 100 μg/mL streptomycin at 37° C. in the presence of 5% CO2. HEK-293 stable cell lines with tetracycline inducible expression of mGluR1, mGluR2, mGluR4, mGluR6 or mGluR8 were maintained with complete DMEM with Hygromycin B (100 μg/mL), Blasticidin (15 μg/mL) at 37° C. in the presence of 5% CO2.
cAMP assay. The Gi/o coupled receptors (mGluR2, mGluR3, mGluR4, mGluR6 and mGluR8) were tested using cAMP assay. Promega's split luciferase based GloSensor cAMP biosensor technology was used in determining Gi-GPCR mediated cAMP production in live cells. On the cells stably expressing mGluR2, mGluR3, mGluR4, mGluR6 or mGluR8, GloSensor cAMP DNA construct was transfected overnight. Cells were seeded into PLL coated 384-well white clear bottom cell culture plates with complete BME Buffer with Tetracycline (1 μg/mL) at a density of 20,000 cells for another 24 h. The cell medium was removed and then 20 μL of buffer was loaded. […] Luminescence was counted in a Trilux luminescence counter. Data were analyzed with Prizm 5.0 (GraphPad software).
Secondary assays—Dose-response assays. […] For each compound, the results from four replicates were averaged and then either EC50 or IC50 values were calculated by non-linear regression using the 4-parameter logistic equation. […]
In sum, the mGluR4 PAM activity was determined using Promega's split luciferase based GloSensor cAMP biosensor assay (refs. 41-42). mGluR4 is coupling to Gαi protein to inhibit adenylate cyclase, which converts ATP to cAMP, which plays an important role in many signal transduction pathways. […] The mGluR4 PAM activity of 15 was evaluated in presence of EC20 concentration of agonist (1 μM L-SOP) by measuring changes in intracellular cAMP concentration.

| accumulation in brain ([1]; at 10 min) | accumulation in heart ([1]; at 20 min) | accumulation in liver ([1]; at 20 min) | accumulation in lungs ([1]; at 20 min) | accumulation in kidneys ([1]; at 30 min) | BBB crossing ([2]; PET, rat brain) | time of highest accumulation in the thalamus ([2]; after administration of the ligand) | maximum average uptake in the thalamus ([2]; time interval of 1-10 min after administering) | EC50 (mGluR4) | SMILES |
| --- | --- | --- | --- | --- | --- | --- | --- | --- | --- |
| 0.41±0.18 % ID/g | 0.50±0.08 % ID/g | 1.33±0.12 % ID/g | 0.58±0.17 % ID/g | 0.93±0.57 % ID/g | crosses BBB | about 2 min | 1.77±0.26 % ID/cc | – | [2H]C([2H])([18F])Sc1cc(NC(=O)c2ccccn2)ccc1Cl [[^18F]15] |
| – | – | – | – | – | – | – | – | 55 nM | c1ccc(Nc2nc3c(s2)CCCc2[nH]ncc2-3)nc1 [Compound 11] |
